The values below come from patent publication US20120283216A1, “FUNGICIDAL 2-(BICYCLIC ARYLOXY)CARBOXAMIDES” (priority 2009, published 2012).

Holding throughout (format): in vivo
One assay has as its system Botrytis cinerea. As to the kind of experiment: Test C: tomato botrytis, preventive spray on tomato seedlings, visual disease rating. To be noted: preventive spray at 40 ppm, rated after 48 h + 3 days. In short, it runs like this: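 Compounds applied at 40 ppm (≈800 g/ha) in acetone/water with surfactant, sprayed to run-off on tomato seedlings. Inoculated next day with B. cinerea spores; 48 h saturated humidity at 20 °C, then 3 days at 27 °C. Visual rating as % disease control versus untreated controls.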

The next assay relates to Septoria tritici. As to the kind of experiment: Test B: wheat leaf blotch, preventive spray on wheat seedlings, visual disease rating. To be noted: preventive spray at 40 ppm, rated after 48 h + 19 days. In short, it runs like this: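 Wheat seedlings were sprayed to run-off with 40 ppm compound (≈800 g/ha) in acetone/water with 250 ppm surfactant, then inoculated with Septoria tritici spores the next day. After 48 h saturated humidity at 20° C and 19 days in a growth chamber at 20° C, disease control was rated visually (0–100% vs controls).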

Assay [1] relates to Blumeria graminis f. sp. tritici. As to the kind of experiment: Test A: wheat powdery mildew, preventive spray on wheat seedlings, visual disease rating. To be noted: preventive spray at 40 ppm, rated 8 days after inoculation. The essentials: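 Wheat seedlings sprayed to run-off with 40 ppm compound (equivalent to 800 g/ha) in acetone/water with 250 ppm surfactant, then dusted with B. graminis spores next day. Held at 20° C. for 8 days before visual rating, 0–100 scale as % disease control relative to controls.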

On to `CCC(Oc1ccc2ccc(OC)cc2c1)C(=O)NC(C)(C)C(=O)OC` (stereo not drawn) [Compound 84], for which the “Test C disease control rating (100 = 100% disease control, 0 = no disease control relative to the controls)” value in the assay with Botrytis cinerea is 100%. Also, the “Test B disease control rating (100 = 100% disease control, 0 = no disease control relative to the controls)” value with Septoria tritici is recorded as 84%. Also, the “Test A disease control rating (100 = 100% disease control, 0 = no disease control relative to the controls)” value in assay [1] amounted to 0%.
For `CCC(Oc1ccc2ccc(SC)cc2c1)C(=O)NC(C)(C)COC` (stereo not drawn) [Compound 91] the same measures were 100%, 100% and 97%.
